By EC50 is commonly meant the concentration giving half of the maximal effect.

These results are taken from patent US20090012156A1, “Composition comprising polyphenol” (Conopco, Inc. d/b/a Unilever, priority 2007, published 2009).

The test system of the assay is 2nd order mesenteric artery side branches of Spontaneously Hypertensive Rats (SHR). The assay is described as follows: Reactivity of isolated arteries: dilator effect during contraction induced by 40 mmol/L K+. Details: species or system rat. As to the method:
Segments of 2nd order mesenteric artery side branches were isolated from 14 weeks old male Spontaneously Hypertensive Rats (SHR). Two stainless-steel wires (diameter 40 μm) were inserted in the lumen of the arterial segments, which were then mounted in organ chambers between an isometric force transducer and a displacement device (Danish Myotechnology by J. P. Trading, Denmark). The organ chambers were filled with Krebs-Ringer bicarbonate solution which was maintained at 37° C. and continuously aerated with 95% O2 and 5% CO2. Before the actual experiments started, arterial segments were stretched to their individual optimal lumen diameter for mechanical performance, i.e. the diameter at which maximal contractile responses to noradrenaline (10 μmol/L) were obtained. In each experiment four second order mesenteric resistance arterial segments from one animal were mounted in individual organ chambers and studied in parallel. […]
For the analysis of the acute effects of the mixtures on K+-induced contraction, increasing concentrations of the mixtures (0.1-100 umol/L) were administered on top of the stable contractions and were left in contact with the arterial segments for 5-7 min to make sure that either no effect or a stable effect was reached. […] In this way, the effects of different exposure times to the mixtures (7, 30 and 90 min) on K+-induced contraction, could be evaluated. […]
Active wall tension (AWT) was calculated by subtracting the resting wall tension.
All contractile responses (AWT in the presence of stimuli, solvent and mixes of ingredients) were next expressed as a percentage of the contractile response (AWT) to 10 uM noradrenaline at the end of the normalisation period, i.e. before exposure of the arterial segments to solvent or mixes of ingredients.
Effects of increasing concentrations of the solvent and of the mixes (0.1 to 100 umol/L) during contractile responses to 40 mmol/L K+, were calculated as % change of the level of pre-contraction. […]

The structures appear in SMILES notation.

Take `COc1cc(-c2oc3cc(O)cc(O)c3c(=O)c2O)ccc1O` [isorhamnetin, 3′methoxy-3,4,5,7-tetrahydroxyflavone]: where the note is “Rattus norvegicus, isolated SHR mesenteric resistance arteries pre-contracted with 40 mmol/L K+, effect worked out by comparing mixtures (Plackett-Burman design), corrected for solvent, read-out: EC50 of dilation of the arteries”, the EC50 came out at 3.1 µM. The compound also displayed a maximum dilatation (at 100 micromolar of isorhamnetin, isolated SHR mesenteric arteries pre-contracted with 40 mmol/L K+) of 94%. Moreover, for the setting “at a low concentration, isolated SHR mesenteric arteries, K+-induced contraction”, the “influence on the dilation of the arteries” value was “significant influence on the dilation of the arteries”.
